Patent publication US20260191968A1, “PROTAC DEGRADERS OF MLLT1 AND/OR MLLT3” (DARK BLUE THERAPEUTICS LTD, priority 2024, published 2026)

Molecular target: T1, MLLT1 (Homo sapiens, UniProt Q03111)
T1 construct: host or cells: MV4-11
T1 sequence (Q03111 1-559): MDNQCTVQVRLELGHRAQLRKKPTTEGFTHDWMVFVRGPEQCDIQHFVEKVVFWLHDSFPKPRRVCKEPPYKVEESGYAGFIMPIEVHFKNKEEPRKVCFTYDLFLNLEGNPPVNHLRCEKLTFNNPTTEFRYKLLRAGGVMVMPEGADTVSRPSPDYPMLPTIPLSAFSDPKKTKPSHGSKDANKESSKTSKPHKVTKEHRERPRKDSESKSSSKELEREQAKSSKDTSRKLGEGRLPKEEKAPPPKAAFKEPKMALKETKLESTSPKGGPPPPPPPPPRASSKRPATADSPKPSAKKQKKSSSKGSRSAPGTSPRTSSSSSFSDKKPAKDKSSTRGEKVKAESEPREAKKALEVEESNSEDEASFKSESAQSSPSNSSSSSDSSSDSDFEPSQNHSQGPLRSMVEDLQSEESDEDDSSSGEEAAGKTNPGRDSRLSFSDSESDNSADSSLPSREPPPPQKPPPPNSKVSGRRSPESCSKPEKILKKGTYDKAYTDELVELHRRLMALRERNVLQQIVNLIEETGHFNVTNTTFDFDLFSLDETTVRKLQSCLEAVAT
Experiment: MLLT1 degradation assay in MV4-11 cells (JESS chemiluminescent detection), three concentrations, 24 h
Assay type: cell-based
Settings: with respect to DMSO control
How it was run: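 Read-out is % MLLT1 degradation versus DMSO, from band peak areas on a JESS chemiluminescent system. Cells (MV4-11) were exposed for 24 h at 37° C to three compound levels, 10, 100 and 1000 nM, in 0.1% DMSO.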

| Compound | MLLT1% Degradation @ 0.01 μM | MLLT1% Degradation @ 0.1 μM | MLLT1% Degradation @ 1 μM |
| --- | --- | --- | --- |
| CN1CCC[C@@H]1c1cc2cnc(NC(=O)c3ccc(OCCC4CCN(c5cccc6c5CN(C5CCC(=O)NC5=O)C6=O)CC4)cc3)cc2[nH]1 (stereo in doubt) [Example 81, 4-(2-(1-(2-((rel-R)-2,6-dioxopiperidin-3-yl)-1-oxoisoindolin-4-yl)piperidin-4-yl)ethoxy)-N-(2-((R)-1-methylpyrrolidin-2-yl)-1H-pyrrolo[3,2-c]pyridin-6-yl)benzamide] | A (Category A: A ≥ 75% degradation) | A (Category A: A ≥ 75% degradation) | A (Category A: A ≥ 75% degradation) |
| CN1CCC[C@@H]1c1cc2cnc(NC(=O)c3ccc(CCCN4CCN(c5cccc6c5C(=O)N(C5CCC(=O)NC5=O)C6=O)CC4)cc3)cc2[nH]1 (stereo partly drawn) [Example 130, 4-(3-(4-(2-(2,6-dioxopiperidin-3-yl)-1,3-dioxoisoindolin-4-yl)piperazin-1-yl)propyl)-N-(2-((R)-1-methylpyrrolidin-2-yl)-1H-pyrrolo[3,2-c]pyridin-6-yl)benzamide] | B (Category B: 50% ≤ B < 75% degradation) | A (Category A: A ≥ 75% degradation) | A (Category A: A ≥ 75% degradation) |
| CN1CCC[C@@H]1c1cc2cnc(NC(=O)c3ccc(OC4CCN(CC5CCN(c6cccc7c6CN(C6CCC(=O)NC6=O)C7=O)CC5)CC4)cc3)cc2[nH]1 (stereo in doubt) [Example 123, 4-((1-((1-(2-((rel-R)-2,6-dioxopiperidin-3-yl)-1-oxoisoindolin-4-yl)piperidin-4-yl)methyl)piperidin-4-yl)oxy)-N-(2-((R)-1-methylpyrrolidin-2-yl)-1H-pyrrolo[3,2-c]pyridin-6-yl)benzamide] | A (Category A: A ≥ 75% degradation) | A (Category A: A ≥ 75% degradation) | A (Category A: A ≥ 75% degradation) |
| CN1CCC[C@@H]1c1cc2cnc(NC(=O)c3ccc(OCC4CC5(CCN(c6cccc7c6CN(C6CCC(=O)NC6=O)C7=O)CC5)C4)cc3F)cc2[nH]1 (stereo partly drawn) [Example 201, 4-((7-(2-(2,6-dioxopiperidin-3-yl)-1-oxoisoindolin-4-yl)-7-azaspiro[3.5]nonan-2-yl)methoxy)-2-fluoro-N-(2-((R)-1-methylpyrrolidin-2-yl)-1H-pyrrolo[3,2-c]pyridin-6-yl)benzamide] | B (Category B: 50% ≤ B < 75% degradation) | A (Category A: A ≥ 75% degradation) | A (Category A: A ≥ 75% degradation) |
| CN1CCC[C@@H]1c1cc2cnc(NC(=O)c3ccc(OC4CCN(CC5CCN(c6cc7c(cc6F)C(=O)N(C6CCC(=O)NC6=O)C7=O)CC5)CC4)cc3)cc2[nH]1 (stereo partly drawn) [Example 184, 4-((1-((1-(2-(2,6-dioxopiperidin-3-yl)-6-fluoro-1,3-dioxoisoindolin-5-yl)piperidin-4-yl)methyl)piperidin-4-yl)oxy)-N-(2-((R)-1-methylpyrrolidin-2-yl)-1H-pyrrolo[3,2-c]pyridin-6-yl)benzamide] | B (Category B: 50% ≤ B < 75% degradation) | A (Category A: A ≥ 75% degradation) | A (Category A: A ≥ 75% degradation) |
| CCN1CCC[C@@H]1c1cc2cnc(NC(=O)c3ccc(CCCCC#Cc4cccc5c4CN(C4CCC(=O)NC4=O)C5=O)nc3)cc2[nH]1 (stereo partly drawn) [Example 74, 6-(6-(2-(2,6-dioxopiperidin-3-yl)-1-oxoisoindolin-4-yl)hex-5-yn-1-yl)-N-(2-((R)-1-ethylpyrrolidin-2-yl)-1H-pyrrolo[3,2-c]pyridin-6-yl) nicotinamide] | B (Category B: 50% ≤ B < 75% degradation) | B (Category B: 50% ≤ B < 75% degradation) | B (Category B: 50% ≤ B < 75% degradation) |
| Cc1ncsc1-c1ccc(CNC(=O)[C@@H]2C[C@@H](O)CN2C(=O)[C@@H](NC(=O)CCCCCCCCCCNC(=O)c2ccc(C(=O)Nc3cc4[nH]c([C@H]5CCCN5C)cc4cn3)cc2)C(C)(C)C)cc1 [Example 69, (2S,4R)-1-[(2S)-3,3-dimethyl-2-(11-{[4-({2-[(2R)-1-methylpyrrolidin-2-yl]-1H-pyrrolo[3,2-c]pyridin-6-yl}carbamoyl)phenyl]formamido}undecanamido)butanoyl]-4-hydroxy-N-{[4-(4-methyl-1,3-thiazol-5-yl)phenyl]methyl}pyrrolidine-2-carboxamide] | C (Category C: 25% ≤ C < 50% degradation) | C (Category C: 25% ≤ C < 50% degradation) | C (Category C: 25% ≤ C < 50% degradation) |
| CN1CCC[C@@H]1c1cc2cnc(NC(=O)c3ccc(OCCC4CCN(c5ccc(C(=O)N[C@H]6CCC(=O)NC6=O)c(F)c5)CC4)cc3F)cc2[nH]1 [Example 215, N—((S)-2,6-dioxopiperidin-3-yl)-2-fluoro-4-(4-(2-(3-fluoro-4-((2-((R)-1-methylpyrrolidin-2-yl)-1H-pyrrolo[3,2-c]pyridin-6-yl)carbamoyl)phenoxy)ethyl)piperidin-1-yl)benzamide] | D (Category D: D < 25% degradation) | C (Category C: 25% ≤ C < 50% degradation) | C (Category C: 25% ≤ C < 50% degradation) |
| C[C@@H]1CN(CC2CCN(c3cccc4c3CN(C3CCC(=O)NC3=O)C4=O)CC2)CCN1c1ccc(C(=O)Nc2cc3[nH]c([C@H]4CCCN4C)cc3cn2)cc1 (relative stereo) [Example 134, 4-((R)-4-((1-(2-((rel-R)-2,6-dioxopiperidin-3-yl)-1-oxoisoindolin-4-yl)piperidin-4-yl)methyl)-2-methylpiperazin-1-yl)-N-(2-((R)-1-methylpyrrolidin-2-yl)-1H-pyrrolo[3,2-c]pyridin-6-yl)benzamide] | B (Category B: 50% ≤ B < 75% degradation) | A (Category A: A ≥ 75% degradation) | A (Category A: A ≥ 75% degradation) |
| CN1CCC[C@@H]1c1cc2cnc(NC(=O)c3cc(F)c(CCCC#Cc4cccc5c4CN(C4CCC(=O)NC4=O)C5=O)c(F)c3)cc2[nH]1 (stereo partly drawn) [Example 84, 4-(5-(2-(2,6-dioxopiperidin-3-yl)-1-oxoisoindolin-4-yl)pent-4-yn-1-yl)-3,5-difluoro-N-(2-((R)-1-methylpyrrolidin-2-yl)-1H-pyrrolo[3,2-c]pyridin-6-yl)benzamide] | B (Category B: 50% ≤ B < 75% degradation) | A (Category A: A ≥ 75% degradation) | A (Category A: A ≥ 75% degradation) |
